# Data: the supplement of paper PMC10307832
# Experiments:
# Assay in all cases: relative viability (nuclei count vs DMSO), 5 days (fraction); higher = more cells survive
# 201T = system: 201T
# Procedure, shortened: (§1)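 Lung cancer cell lines in 1536-well plates got either a single drug or a fixed anchor-drug dose together with five library-drug doses (not always all listed) in √10 steps, by pin tool, on the day after seeding. Nuclei were counted after 5 days, and relative viability is the treated-to-vehicle ratio of nuclei counts. Values are medians of duplicate plates.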
# NCI-H1437 = system: NCI-H1437
# Procedure, shortened: as §1
# PC-3 [JPC-3] = system: PC-3 [JPC-3]
# Procedure, shortened: as §1
# HCC-78 = system: HCC-78
# Procedure, shortened: as §1
# NCI-H1734 = system: NCI-H1734
# Procedure, shortened: as §1
# UMC-11 = system: UMC-11
# Procedure, shortened: as §1
# SW 1573 = system: SW 1573
# Procedure, shortened: as §1
# HCC-44 = system: HCC-44
# Procedure, shortened: as §1
# LU99A = system: LU99A
# Procedure, shortened: as §1
# NCI-H441 = system: NCI-H441
# Procedure, shortened: as §1
# NCI-H1355 = system: NCI-H1355
# Procedure, shortened: as §1
# HCC-366 = system: HCC-366
# Procedure, shortened: as §1
# NCI-H2126 = system: NCI-H2126
# Procedure, shortened: as §1
# NCI-H358 = system: NCI-H358
# Procedure, shortened: as §1
# NCI-H727 = system: NCI-H727
# Procedure, shortened: as §1
# NCI-H520 = system: NCI-H520
# Procedure, shortened: as §1
# NCI-H2009 = system: NCI-H2009
# Procedure, shortened: as §1
# BEN = system: BEN
# Procedure, shortened: as §1
# NCI-H2347 = system: NCI-H2347
# Procedure, shortened: as §1
# NCI-H838 = system: NCI-H838
# Procedure, shortened: as §1
# HARA = system: HARA
# Procedure, shortened: as §1
# NCI-H2405 = system: NCI-H2405
# Procedure, shortened: as §1
smiles,measurement,setting,value
COCC1(CO)C(=O)C2CCN1CC2 (stereo unspecified) [PRIMA-1MET] + CC(=O)Nc1cccc(-n2c(=O)n(C3CC3)c(=O)c3c(Nc4ccc(I)cc4F)n(C)c(=O)c(C)c32)c1 [Trametinib] (partner 0.02 µM),relative viability,201T; first compound 0.2 µM,0.757
same,relative viability,201T; first compound 0.6325 µM,0.74
same,relative viability,201T; first compound 2 µM,0.684
same,relative viability,201T; first compound 6.325 µM,0.749
same,relative viability,201T; first compound 20 µM,0.721
same,relative viability,NCI-H1437; first compound 0.2 µM,0.631
same,relative viability,NCI-H1437; first compound 0.6325 µM,0.525
same,relative viability,NCI-H1437; first compound 2 µM,0.449
same,relative viability,NCI-H1437; first compound 6.325 µM,0.546
same,relative viability,NCI-H1437; first compound 20 µM,0.479
same,relative viability,PC-3 [JPC-3]; first compound 0.2 µM,0.757
same,relative viability,PC-3 [JPC-3]; first compound 0.6325 µM,0.667
same,relative viability,PC-3 [JPC-3]; first compound 2 µM,0.733
same,relative viability,PC-3 [JPC-3]; first compound 6.325 µM,0.696
same,relative viability,PC-3 [JPC-3]; first compound 20 µM,0.614
same,relative viability,HCC-78; first compound 0.2 µM,0.676
same,relative viability,HCC-78; first compound 0.6325 µM,0.708
same,relative viability,HCC-78; first compound 2 µM,0.478
same,relative viability,HCC-78; first compound 6.325 µM,0.596
same,relative viability,HCC-78; first compound 20 µM,0.331
same,relative viability,NCI-H1734; first compound 0.2 µM,0.564
same,relative viability,NCI-H1734; first compound 0.6325 µM,0.622
same,relative viability,NCI-H1734; first compound 2 µM,0.584
same,relative viability,NCI-H1734; first compound 6.325 µM,0.581
same,relative viability,NCI-H1734; first compound 20 µM,0.0425
same,relative viability,UMC-11; first compound 0.2 µM,0.705
same,relative viability,UMC-11; first compound 0.6325 µM,0.569
same,relative viability,UMC-11; first compound 2 µM,0.513
same,relative viability,UMC-11; first compound 6.325 µM,0.817
same,relative viability,UMC-11; first compound 20 µM,0.749
same,relative viability,SW 1573; first compound 0.2 µM,0.604
same,relative viability,SW 1573; first compound 0.6325 µM,0.54
same,relative viability,SW 1573; first compound 2 µM,0.409
same,relative viability,SW 1573; first compound 6.325 µM,0.0772
same,relative viability,SW 1573; first compound 20 µM,0.024
same,relative viability,HCC-44; first compound 0.2 µM,1.01
same,relative viability,HCC-44; first compound 0.6325 µM,0.951
same,relative viability,HCC-44; first compound 2 µM,1.12
same,relative viability,HCC-44; first compound 6.325 µM,1.07
same,relative viability,HCC-44; first compound 20 µM,1.03
same,relative viability,LU99A; first compound 0.2 µM,0.314
same,relative viability,LU99A; first compound 0.6325 µM,0.573
same,relative viability,LU99A; first compound 2 µM,0.502
same,relative viability,LU99A; first compound 6.325 µM,0.261
same,relative viability,LU99A; first compound 20 µM,0.21
same,relative viability,NCI-H441; first compound 0.2 µM,0.418
same,relative viability,NCI-H441; first compound 0.6325 µM,0.297
same,relative viability,NCI-H441; first compound 2 µM,0.369
same,relative viability,NCI-H441; first compound 6.325 µM,0.399
same,relative viability,NCI-H441; first compound 20 µM,0.267
same,relative viability,NCI-H1355; first compound 0.2 µM,0.393
same,relative viability,NCI-H1355; first compound 0.6325 µM,0.462
same,relative viability,NCI-H1355; first compound 2 µM,0.444
same,relative viability,NCI-H1355; first compound 6.325 µM,0.427
same,relative viability,NCI-H1355; first compound 20 µM,0.428
same,relative viability,HCC-366; first compound 0.2 µM,0.288
same,relative viability,HCC-366; first compound 0.6325 µM,0.289
same,relative viability,HCC-366; first compound 2 µM,0.263
same,relative viability,HCC-366; first compound 6.325 µM,0.431
same,relative viability,HCC-366; first compound 20 µM,0.0205
same,relative viability,NCI-H2126; first compound 0.2 µM,0.604
same,relative viability,NCI-H2126; first compound 0.6325 µM,0.47
same,relative viability,NCI-H2126; first compound 2 µM,0.597
same,relative viability,NCI-H2126; first compound 6.325 µM,0.577
same,relative viability,NCI-H2126; first compound 20 µM,0.543
same,relative viability,NCI-H358; first compound 0.2 µM,0.137
same,relative viability,NCI-H358; first compound 0.6325 µM,0.134
same,relative viability,NCI-H358; first compound 2 µM,0.108
same,relative viability,NCI-H358; first compound 6.325 µM,0.108
same,relative viability,NCI-H358; first compound 20 µM,0.0807
same,relative viability,NCI-H727; first compound 0.2 µM,0.423
same,relative viability,NCI-H727; first compound 0.6325 µM,0.322
same,relative viability,NCI-H727; first compound 6.325 µM,0.413
same,relative viability,NCI-H727; first compound 20 µM,0.377
same,relative viability,NCI-H520; first compound 0.2 µM,0.463
same,relative viability,NCI-H520; first compound 2 µM,0.455
same,relative viability,NCI-H520; first compound 6.325 µM,0.76
same,relative viability,NCI-H520; first compound 20 µM,0.0736
same,relative viability,NCI-H2009; first compound 0.2 µM,0.246
same,relative viability,NCI-H2009; first compound 0.6325 µM,0.306
same,relative viability,NCI-H2009; first compound 2 µM,0.237
same,relative viability,NCI-H2009; first compound 6.325 µM,0.252
same,relative viability,NCI-H2009; first compound 20 µM,0.0028
same,relative viability,BEN; first compound 0.2 µM,1.12
same,relative viability,BEN; first compound 0.6325 µM,0.926
same,relative viability,BEN; first compound 6.325 µM,1.03
same,relative viability,BEN; first compound 20 µM,1.07
same,relative viability,NCI-H2347; first compound 0.2 µM,0.286
same,relative viability,NCI-H2347; first compound 0.6325 µM,0.303
same,relative viability,NCI-H2347; first compound 2 µM,0.255
same,relative viability,NCI-H2347; first compound 6.325 µM,0.225
same,relative viability,NCI-H2347; first compound 20 µM,0.24
same,relative viability,NCI-H838; first compound 0.2 µM,0.55
same,relative viability,NCI-H838; first compound 0.6325 µM,0.523
same,relative viability,NCI-H838; first compound 2 µM,0.416
same,relative viability,NCI-H838; first compound 6.325 µM,0.553
same,relative viability,NCI-H838; first compound 20 µM,0.557
same,relative viability,HARA; first compound 0.2 µM,0.403
same,relative viability,HARA; first compound 0.6325 µM,0.754
same,relative viability,HARA; first compound 2 µM,0.647
same,relative viability,HARA; first compound 6.325 µM,0.529
same,relative viability,HARA; first compound 20 µM,0.736
same,relative viability,NCI-H2405; first compound 0.2 µM,0.399
same,relative viability,NCI-H2405; first compound 0.6325 µM,0.598
same,relative viability,NCI-H2405; first compound 6.325 µM,0.463
same,relative viability,NCI-H2405; first compound 20 µM,0.0947
